Source: ChEMBL document CHEMBL4251603, “Structure-activity studies on N-Substituted tranylcypromine derivatives lead to selective inhibitors of lysine specific demethylase 1 (LSD1) and potent inducers of leukemic cell differentiation” (Eur J Med Chem, 2018)
Active and inactive are the calls of the source. No cut-off for these calls is given here.

Legend:
MAO-B [1] = biological target: T1, MAO-B (Homo sapiens, UniProt P27338); assay: (§1) Inhibition of MAO-B (unknown origin) at 10 uM using beetle luciferin derived luminogenic substrate preincubated for 15 mins followed by substrate addition measured after 60 mins by MAO-Glo assay relative to control; conditions: MAO-B enzyme (unknown origin), probe beetle luciferin derived luminogenic substrate
T1 sequence (P27338 whole entry): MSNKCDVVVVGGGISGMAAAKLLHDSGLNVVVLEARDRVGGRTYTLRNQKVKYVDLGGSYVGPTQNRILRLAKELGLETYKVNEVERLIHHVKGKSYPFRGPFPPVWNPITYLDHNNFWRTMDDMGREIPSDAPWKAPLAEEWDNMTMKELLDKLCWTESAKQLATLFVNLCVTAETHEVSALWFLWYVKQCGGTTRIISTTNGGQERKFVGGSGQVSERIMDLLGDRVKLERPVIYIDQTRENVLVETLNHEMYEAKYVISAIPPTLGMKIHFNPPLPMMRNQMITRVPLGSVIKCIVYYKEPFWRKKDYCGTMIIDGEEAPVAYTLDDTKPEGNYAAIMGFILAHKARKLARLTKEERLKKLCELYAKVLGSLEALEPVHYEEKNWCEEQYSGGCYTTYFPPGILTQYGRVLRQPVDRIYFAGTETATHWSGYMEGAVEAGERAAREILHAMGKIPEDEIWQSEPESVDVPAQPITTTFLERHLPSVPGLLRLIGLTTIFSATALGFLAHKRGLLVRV

MAO-A [2] = biological target: T2, MAO-A (Homo sapiens, UniProt P21397); assay: in vitro; conditions: MAO-A enzyme (unknown origin), probe beetle luciferin derived luminogenic substrate
T2 sequence (P21397 whole entry): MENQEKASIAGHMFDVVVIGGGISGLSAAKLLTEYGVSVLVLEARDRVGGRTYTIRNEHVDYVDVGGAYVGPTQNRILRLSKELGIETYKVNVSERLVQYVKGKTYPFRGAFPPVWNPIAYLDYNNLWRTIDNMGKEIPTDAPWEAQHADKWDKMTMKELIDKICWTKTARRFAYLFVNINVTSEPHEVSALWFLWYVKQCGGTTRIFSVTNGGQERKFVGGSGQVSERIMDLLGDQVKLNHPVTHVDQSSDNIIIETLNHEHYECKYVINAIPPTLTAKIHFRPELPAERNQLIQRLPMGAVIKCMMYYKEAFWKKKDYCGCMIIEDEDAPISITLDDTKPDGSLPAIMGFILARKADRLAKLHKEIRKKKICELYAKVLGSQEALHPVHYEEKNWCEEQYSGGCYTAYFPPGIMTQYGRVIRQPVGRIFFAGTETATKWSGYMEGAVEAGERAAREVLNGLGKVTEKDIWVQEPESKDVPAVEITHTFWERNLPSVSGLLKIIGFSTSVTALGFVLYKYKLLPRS

[3] = biological target: T3, Amine oxidase [flavin-containing] B (Homo sapiens, UniProt P27338); assay: as §1; conditions: 1 h, 10 µM
T3 sequence (P27338 whole entry): T1 sequence (P27338 whole entry)

MAO-A [4] = biological target: T2, MAO-A; assay: Inhibition of MAO-A (unknown origin) at 1 uM using beetle luciferin derived luminogenic substrate preincubated for 15 mins followed by substrate addition measured after 60 mins by MAO-Glo assay relative to control; conditions: MAO-A enzyme (unknown origin), probe beetle luciferin derived luminogenic substrate
[5] = biological target: T3, Amine oxidase [flavin-containing] B; assay: Inhibition of MAO-B (unknown origin) using beetle luciferin derived luminogenic substrate preincubated for 15 mins followed by substrate addition measured after 60 mins by MAO-Glo assay
[6] = biological target: T4, Amine oxidase [flavin-containing] A (Homo sapiens, UniProt P21397)
T4 sequence (P21397 whole entry): T2 sequence (P21397 whole entry)

MAO-B [7] = biological target: T1, MAO-B; assay: in vitro; conditions: MAO-B enzyme (unknown origin), probe beetle luciferin derived luminogenic substrate
THP-1 [8] = assay: Inhibition of colony formation in human THP1 cells at 0.5 uM after […] by light microscopic method relative to control; format: functional
[9] = biological target: Lysine-specific histone demethylase 1A (Mus musculus) (UniProt Q6ZQ88); assay: Inhibition of LSD1 in mouse Hoxa9/Meis1 transformed progenitor cells assessed as induction of granulocytic differentiation at 50 to 100 nM up to 96 hrs by pappenheim staining based assay
[10] = biological target: Lysine-specific histone demethylase 1A (Mus musculus) (UniProt Q6ZQ88); assay: Inhibition of LSD1 in mouse Hoxa9/Meis1 transformed progenitor cells assessed as reduction in c-Kit positive cells at 100 nM after 96 hrs by flow cytometry; format: cell-based
[11] = biological target: T5, Lysine-specific histone demethylase 1A (Homo sapiens, UniProt O60341); conditions: 100 uM
[12] = biological target: T5, Lysine-specific histone demethylase 1A; conditions: 10 uM
THP-1 [13] = assay: Inhibition of colony formation in human THP1 cells at 0.5 to 50 uM after […] by light microscopic method; format: functional, cell-based
[14] = biological target: T5, Lysine-specific histone demethylase 1A
MAO-B [15] = biological target: T1, MAO-B; assay: Inhibition of MAO-B (unknown origin) at 250 uM using beetle luciferin derived luminogenic substrate preincubated for 15 mins followed by substrate addition measured after 60 mins by MAO-Glo assay relative to control; conditions: MAO-B enzyme (unknown origin), probe beetle luciferin derived luminogenic substrate

Question: For `O=[N+]([O-])c1cc(CN[C@H]2C[C@@H]2c2ccccc2)ccc1Cl` (relative stereo), which inhibition at 1 h, 10 µM (MAO-B [1]) is on record?
Answer: 13%

Question: What about the inhibition at 1 h, 10 µM (MAO-A [2]) of the same compound?
Answer: 100%

Question: How did the “inhibition (INH)” value [3] turn out when `COc1ccc(CN[C@H]2C[C@@H]2c2ccccc2)cc1OC` (relative stereo) was run?
Answer: Not Active

Question: What about the inhibition at 1 h, 10 µM (MAO-A [2]) of the same compound?
Answer: 69%

Question: For `Fc1ccc(CN[C@H]2C[C@@H]2c2ccccc2)cc1F` (relative stereo), which inhibition at 1 h, 1 µM (MAO-A [4]) is on record?
Answer: 43%

Question: What does the source list for `Fc1ccccc1CN[C@H]1C[C@@H]1c1ccccc1` (relative stereo)?
Answer: inhibition at 1 h, 10 µM (MAO-B [1]): 16%; inhibition at 1 h, 10 µM (MAO-A [2]): 20%

Question: `NC(=O)c1cccc(CN[C@H]2C[C@@H]2c2ccccc2)c1` (relative stereo) was tested. Which IC50 [5] did it give?
Answer: 95.7 µM

Question: And the IC50 [6]?
Answer: 27.9 µM

Question: Which results are given for `c1ccc(COc2cccc(CN[C@H]3C[C@@H]3c3ccccc3)c2)cc1` (relative stereo)?
Answer: inhibition at 1 h, 1 µM (MAO-A [4]): 60%; inhibition at 1 h, 1 µM (MAO-B [7]): 23%

Question: For `CCc1ccc(CN[C@H]2C[C@@H]2c2ccccc2)cc1` (relative stereo), which inhibition at 1 h, 1 µM (MAO-A [4]) is on record?
Answer: 33%

Question: And the inhibition at 1 h, 1 µM (MAO-B [7])?
Answer: 12%

Question: `COc1ccc(CN[C@H]2C[C@@H]2c2ccccc2)cc1` (relative stereo) was tested. Which inhibition at 1 h, 1 µM (MAO-A [4]) did it give?
Answer: 30%

Question: What does the source list for `Clc1ccc(CN[C@H]2C[C@@H]2c2ccccc2)cc1` (relative stereo)?
Answer: IC50 [5]: 14.1 µM; inhibition at 0.5 µM (THP-1 [8]): 80%; inhibition [9]: Active; inhibition [10]: Active; IC50 [6]: 0.206 µM

Question: Which results are given for `Brc1ccc(CN[C@H]2C[C@@H]2c2ccccc2)cc1` (relative stereo)?
Answer: inhibition at 1 h, 10 µM (MAO-B [1]): 27%; inhibition at 1 h, 10 µM (MAO-A [2]): 43%

Question: With `Clc1ccc(CN[C@H]2C[C@@H]2c2ccccc2)c(Cl)c1` (relative stereo) as the compound, how does the inhibition at 1 h, 10 µM (MAO-B [1]) read?
Answer: 11%

Question: What about the inhibition at 1 h, 10 µM (MAO-A [2]) of the same compound?
Answer: 73%

Question: For `C[C@@H]1[C@H](N)[C@H]1c1ccccc1.Cl` (relative stereo), which inhibition [11] is on record?
Answer: inactive

Question: And the “inhibition (INH)” value [3]?
Answer: Not Active

Question: `C[C@@H]1[C@H](NCc2ccc(Cl)cc2)[C@H]1c1ccccc1` (relative stereo) was tested. Which inhibition [12] did it give?
Answer: inactive

Question: And the IC50 [5]?
Answer: 10.5 µM

Question: And the inhibition (THP-1 [13])?
Answer: inactive

Question: And the IC50 [6]?
Answer: 0.31 µM

Question: What about the Tm [14] of the same compound?
Answer: 47.9 °C

Question: For `c1ccc([C@H]2C[C@@H]2NCc2cccnc2)cc1` (relative stereo), which “inhibition (INH)” value [3] is on record?
Answer: Not Active

Question: With `c1ccc(-c2cccc(CN[C@H]3C[C@@H]3c3ccccc3)c2)cc1` (relative stereo) as the compound, how does the “inhibition (INH)” value [3] read?
Answer: Not Active

Question: And the IC50 [6]?
Answer: 0.161 µM

Question: With `CN(C)c1ccc(CN[C@H]2C[C@@H]2c2ccccc2)cc1` (relative stereo) as the compound, how does the inhibition at 1 h, 1 µM (MAO-A [4]) read?
Answer: 30%

Question: `Cn1c(CN[C@H]2C[C@@H]2c2ccccc2)cc2ccccc21` (relative stereo) was tested. Which inhibition at 1 h, 10 µM (MAO-B [1]) did it give?
Answer: 14%

Question: And the inhibition at 1 h, 10 µM (MAO-A [2])?
Answer: 54%

Question: `O=[N+]([O-])c1ccc(N[C@H]2C[C@@H]2c2ccccc2)o1` (relative stereo) was tested. Which inhibition at 1 h, 1 µM (MAO-A [4]) did it give?
Answer: 27%

Question: Which results are given for `Fc1cccc(CN[C@H]2C[C@@H]2c2ccccc2)c1` (relative stereo)?
Answer: inhibition at 1 h, 10 µM (MAO-B [1]): 20%; inhibition at 1 h, 10 µM (MAO-A [2]): 69%

Question: Which results are given for `Brc1ccccc1CN[C@H]1C[C@@H]1c1ccccc1` (relative stereo)?
Answer: inhibition at 1 h, 10 µM (MAO-B [1]): 24%; inhibition at 1 h, 10 µM (MAO-A [2]): 47%

Question: `C[C@H]1[C@@H](N)[C@H]1c1ccccc1.Cl` (relative stereo) was tested. Which inhibition [11] did it give?
Answer: inactive

Question: What about the “inhibition (INH)” value [3] of the same compound?
Answer: Not Active

Question: With `C[C@@H]1[C@H](NCc2cccc([N+](=O)[O-])c2)[C@H]1c1ccccc1` (relative stereo) as the compound, how does the inhibition [12] read?
Answer: inactive

Question: What about the IC50 [5] of the same compound?
Answer: 2.2 µM

Question: What about the inhibition (THP-1 [13]) of the same compound?
Answer: inactive

Question: And the IC50 [6]?
Answer: 0.237 µM

Question: What about the Tm [14] of the same compound?
Answer: 45.6 °C

Question: Which results are given for `NC(=O)c1ccc(CN[C@H]2C[C@@H]2c2ccccc2)cc1` (relative stereo)?
Answer: inhibition at 1 h, 250 µM (MAO-B [15]): 50%; IC50 [6]: 24.7 µM

Question: Which results are given for `c1ccc(CN[C@H]2C[C@@H]2c2ccccc2)cc1` (relative stereo)?
Answer: inhibition at 1 h, 10 µM (MAO-B [1]): 33%; IC50 [6]: 5.7 µM
